# Test results reported in paper PMC13198257, “An aerosolized dual-action autotaxin inhibitor-PPARγ agonist for the treatment of pulmonary fibrosis” (Cell Reports Medicine, 2026).
# Tested on: lung gene expression
# Assay: RNA sequencing of lung tissue (BLM/EL244 vs BLM)
# Assay type: in vivo, mouse
# Procedure: RNA quality was assessed using an Agilent TapeStation 4150 with the High Sensitivity […] ScreenTape (Agilent), according to the manufacturer’s protocols. For library preparation, the QuantSeq 3’mRNA-Seq Library Prep Kit (Lexogen) was used according to manufacturer’s instructions. Briefly, 500 ng of RNA from each sample was used for first-strand synthesis, followed by RNA template removal, and second-strand synthesis initiated by random primers. In-line barcodes were introduced at this step, and this was followed by magnetic bead-based purification. The resulting libraries were amplified for 15 cycles and re-purified, with quantity and quality assessed on a Qubit 4 Fluorometer with the Invitrogen Qubit dsDNA HS Assay and an Agilent Tapestation 4150 with the High Sensitivity D1000 assay kit, respectively. The quantified libraries were pooled equimolarly; 50ng of total library mix was used for Adapter Conversion PCR Amplification using the Universal Library Conversion Kit (App-A), Version: V1.0 (MGI Tech Co., Ltd.), according to the manufacturer’s instructions.
# The quantity and quality of the purified adapter conversion PCR (AC-PCR) product were evaluated on a Qubit 4 Fluorometer with the Invitrogen Qubit dsDNA HS Assay and on an Agilent Tapestation 4150 with the High Sensitivity D1000 assay kit, respectively. This was followed by DNA denaturation, Single-Strand Circularisation, Enzymatic Digestion, Enzymatic Digestion Product Cleanup and Quality Control steps on 1 pmol of AC-PCR product, according to the Universal Library Conversion Kit (App-A) User Manual (Version: A3).
# Finally, 60 fmol of ssCirDNA were used for DNB preparation and sequencing on a DNBSEQ-G400 platform at the BSRC Alexander Fleming Genomics Facility, using a G400 App-A FCS SE100 High-throughput Sequencing Set (MGI Tech Co., Ltd.), according to the manufacturer’s instructions.
# Alignment of the FASTQ files was performed against the mouse genome build mm10 using a custom Bash script.[143] Read counting on the 3′ UTRs and differential expression analysis were conducted using the metaseqR2 bioconductor package.[144] Genes corresponding to the following biotypes were excluded: polymorphic_pseudogene, processed_transcript, pseudogene, IG_V_pseudogene, misc_RNA, IG_C_gene, IG_J_gene, IG_D_gene, IG_LV_gene, TR_V_gene, TR_V_pseudogene, TEC, and processed_pseudogene. Gene counts were normalized with DESEQ[145] through metaseqR2. Genes with more than 10 counts in at least 50% of the samples were kept for further processing. For differential expression analysis, the PANDORA algorithm[146] was used to estimate a meta p-value integrating the results from the DESEQ, DESEQ2,[147] edgeR,[148] limma,[149] NBPSeq,[150] and NOISeq[151] algorithms. All additional parameters were set to default values.
# Pathway enrichment analysis was performed for the Gene Ontology Biological process (BP) and Molecular Function (MF) terms through GeneCodis 4.[152] The volcano plots, scatterplots, Venn diagrams, and dot plots were generated using the ggplot2 Bioconductor package.
# [1] = lung tissue of BLM-treated mice, BLM/EL244 vs BLM
smiles,measurement,setting,value
"O=C1NC(=O)C(Cc2ccc(OCCC3CCN(C(=O)OCc4cc(Cl)cc(Cl)c4)CC3)cc2)S1 (stereo not shown) [EL244, 3,5-dichlorobenzyl 4-(2-(4-((2,4-dioxothiazolidin-5-yl)methyl)phenoxy)ethyl)piperidine-1-carboxylate]",Rora log2 nFC BLM/EL244 vs BLM,"DEG Rora, nFC: normalised fold change",0.80
same,log2 nFC BLM/EL244 vs BLM,DEG Rrm2,-2.56
same,Ryr2 log2 nFC BLM/EL244 vs BLM,"DEG Ryr2, nFC: normalised fold change",2.14
same,S1pr4 log2 nFC BLM/EL244 vs BLM,"DEG S1pr4, nFC: normalised fold change",0.94
same,S1pr5 log2 nFC BLM/EL244 vs BLM,"DEG S1pr5, nFC: normalised fold change",1.64
same,log2 nFC BLM/EL244 vs BLM,DEG S100a4,-1.26
same,S100a8 log2 nFC BLM/EL244 vs BLM,"DEG S100a8, nFC: normalised fold change",1.52
same,S100a9 log2 nFC BLM/EL244 vs BLM,"DEG S100a9, nFC: normalised fold change",2.11
same,log2 nFC BLM/EL244 vs BLM,DEG S100a14,-1.28
same,Scn3a log2 nFC BLM/EL244 vs BLM,"DEG Scn3a, nFC: normalised fold change",0.75
same,Scube2 log2 nFC BLM/EL244 vs BLM,"DEG Scube2, nFC: normalised fold change",0.74
same,Sec14l3 log2 nFC BLM/EL244 vs BLM,"DEG Sec14l3, nFC: normalised fold change",0.69
same,Sec14l4 log2 nFC BLM/EL244 vs BLM,"DEG Sec14l4, nFC: normalised fold change",0.77
same,Sell log2 nFC BLM/EL244 vs BLM,"DEG Sell, nFC: normalised fold change",1.03
same,Sema3g log2 nFC BLM/EL244 vs BLM,"DEG Sema3g, nFC: normalised fold change",0.78
same,log2 nFC BLM/EL244 vs BLM,DEG Serpina3g,-1.31
same,Sftpa1 log2 nFC BLM/EL244 vs BLM,"DEG Sftpa1, nFC: normalised fold change",0.70
same,Sgip1 log2 nFC BLM/EL244 vs BLM,"DEG Sgip1, nFC: normalised fold change",0.90
same,Sgms1 log2 nFC BLM/EL244 vs BLM,"DEG Sgms1, nFC: normalised fold change",0.71
same,log2 nFC BLM/EL244 vs BLM,DEG Ska1,-2.52
same,log2 nFC BLM/EL244 vs BLM,DEG Slamf8,-1.24
same,Slc2a4rg-ps log2 nFC BLM/EL244 vs BLM,"DEG Slc2a4rg-ps, nFC: normalised fold change",0.85
same,Slc7a10 log2 nFC BLM/EL244 vs BLM,"DEG Slc7a10, nFC: normalised fold change",0.97
same,log2 nFC BLM/EL244 vs BLM,DEG Slc7a11,-1.50
same,Slc16a11 log2 nFC BLM/EL244 vs BLM,"DEG Slc16a11, nFC: normalised fold change",0.79
same,Slc38a4 log2 nFC BLM/EL244 vs BLM,"DEG Slc38a4, nFC: normalised fold change",1.12
same,Slc43a3 log2 nFC BLM/EL244 vs BLM,"DEG Slc43a3, nFC: normalised fold change",0.73
same,Sln log2 nFC BLM/EL244 vs BLM,"DEG Sln, nFC: normalised fold change",2.01
same,Smad6 log2 nFC BLM/EL244 vs BLM,"DEG Smad6, nFC: normalised fold change",1.18
same,Smpx log2 nFC BLM/EL244 vs BLM,"DEG Smpx, nFC: normalised fold change",2.34
same,Smyd1 log2 nFC BLM/EL244 vs BLM,"DEG Smyd1, nFC: normalised fold change",1.73
same,Snhg11 log2 nFC BLM/EL244 vs BLM,"DEG Snhg11, nFC: normalised fold change",1.40
same,Sntb1 log2 nFC BLM/EL244 vs BLM,"DEG Sntb1, nFC: normalised fold change",0.72
same,Snx21 log2 nFC BLM/EL244 vs BLM,"DEG Snx21, nFC: normalised fold change",1.15
same,Sorbs1 log2 nFC BLM/EL244 vs BLM,"DEG Sorbs1, nFC: normalised fold change",0.70
same,Sorbs3 log2 nFC BLM/EL244 vs BLM,"DEG Sorbs3, nFC: normalised fold change",0.80
same,log2 nFC BLM/EL244 vs BLM,DEG Sox9,-1.42
same,log2 nFC BLM/EL244 vs BLM,DEG Spp1,-1.50
same,Srcin1 log2 nFC BLM/EL244 vs BLM,"DEG Srcin1, nFC: normalised fold change",0.91
same,Syne1 log2 nFC BLM/EL244 vs BLM,"DEG Syne1, nFC: normalised fold change",0.70
same,Synm log2 nFC BLM/EL244 vs BLM,"DEG Synm, nFC: normalised fold change",0.84
same,log2 nFC BLM/EL244 vs BLM,DEG Tacc3,-1.27
same,Tbata log2 nFC BLM/EL244 vs BLM,"DEG Tbata, nFC: normalised fold change",1.72
same,Tbkbp1 log2 nFC BLM/EL244 vs BLM,"DEG Tbkbp1, nFC: normalised fold change",0.71
same,Tcap log2 nFC BLM/EL244 vs BLM,"DEG Tcap, nFC: normalised fold change",1.73
same,log2 nFC BLM/EL244 vs BLM,DEG Tcf19,-1.42
same,Tex11 log2 nFC BLM/EL244 vs BLM,"DEG Tex11, nFC: normalised fold change",1.83
same,Tgfbr3 log2 nFC BLM/EL244 vs BLM,"DEG Tgfbr3, nFC: normalised fold change",0.83
same,Tmem100 log2 nFC BLM/EL244 vs BLM,"DEG Tmem100, nFC: normalised fold change",0.82
same,Tmem182 log2 nFC BLM/EL244 vs BLM,"DEG Tmem182, nFC: normalised fold change",2.26
same,Tmem132d log2 nFC BLM/EL244 vs BLM,"DEG Tmem132d, nFC: normalised fold change",2.38
same,log2 nFC BLM/EL244 vs BLM,DEG Tnip3,-1.47
same,Tnnc1 log2 nFC BLM/EL244 vs BLM,"DEG Tnnc1, nFC: normalised fold change",2.18
same,Tnni3 log2 nFC BLM/EL244 vs BLM,"DEG Tnni3, nFC: normalised fold change",2.31
same,Tnnt2 log2 nFC BLM/EL244 vs BLM,"DEG Tnnt2, nFC: normalised fold change",1.77
same,Tns2 log2 nFC BLM/EL244 vs BLM,"DEG Tns2, nFC: normalised fold change",0.77
same,Tppp3 log2 nFC BLM/EL244 vs BLM,"DEG Tppp3, nFC: normalised fold change",0.77
same,log2 nFC BLM/EL244 vs BLM,DEG Trem2,-1.42
same,log2 nFC BLM/EL244 vs BLM,DEG Trip13,-1.42
same,Ttn log2 nFC BLM/EL244 vs BLM,"DEG Ttn, nFC: normalised fold change",2.53
same,Unc45b log2 nFC BLM/EL244 vs BLM,"DEG Unc45b, nFC: normalised fold change",0.77
same,Upk3b log2 nFC BLM/EL244 vs BLM,"DEG Upk3b, nFC: normalised fold change",1.53
same,Vpreb3 log2 nFC BLM/EL244 vs BLM,"DEG Vpreb3, nFC: normalised fold change",0.71
same,Vwa3b log2 nFC BLM/EL244 vs BLM,"DEG Vwa3b, nFC: normalised fold change",0.98
same,log2 nFC BLM/EL244 vs BLM,DEG Wfdc17,-1.30
same,Xndc1 log2 nFC BLM/EL244 vs BLM,"DEG Xndc1, nFC: normalised fold change",1.14
same,Zmynd10 log2 nFC BLM/EL244 vs BLM,"DEG Zmynd10, nFC: normalised fold change",1.28
same,log2 nFC BLM/EL244 vs BLM,DEG Zranb3,-1.43
same,log2 nFC BLM/EL244 vs BLM,DEG Zwilch,-1.54
same,1810010H24Rik log2 nFC,[1],0.90
same,1810010H24Rik nFC,[1],1.87
same,Abca8a log2 nFC,[1],0.75
same,Abca8a nFC,[1],1.68
same,Abi3bp log2 nFC,[1],1.00
same,Abi3bp nFC,[1],2.00
same,Acbd4 log2 nFC,[1],0.86
same,Acbd4 nFC,[1],1.81
same,Adgrf5 log2 nFC,[1],0.68
same,Adgrf5 nFC,[1],1.60
same,Adh7 log2 nFC,[1],1.02
same,Adh7 nFC,[1],2.02
same,Aldh1a1 log2 nFC,[1],0.78
same,Aldh1a1 nFC,[1],1.71
same,Ankrd44 log2 nFC,[1],0.84
same,Ankrd44 nFC,[1],1.79
same,Aox3 log2 nFC,[1],1.07
same,Aox3 nFC,[1],2.09
same,Ar log2 nFC,[1],1.04
same,Ar nFC,[1],2.06
same,Arhgef28 log2 nFC,[1],0.76
same,Arhgef28 nFC,[1],1.70
same,Arhgef38 log2 nFC,[1],0.87
same,Arhgef38 nFC,[1],1.83
same,Arl4a log2 nFC,[1],0.70
same,Arl4a nFC,[1],1.63
same,Atp2a3 log2 nFC,[1],0.83
same,Atp2a3 nFC,[1],1.77
same,Atp6v1c2 log2 nFC,[1],1.03
same,Atp6v1c2 nFC,[1],2.04
same,Atp7b log2 nFC,[1],0.95
same,Atp7b nFC,[1],1.93
same,Bcar3 log2 nFC,[1],0.82
same,Bcar3 nFC,[1],1.76
same,Bmp6 log2 nFC,[1],1.07
same,Bmp6 nFC,[1],2.10
same,Cbr2 log2 nFC,[1],0.91
same,Cbr2 nFC,[1],1.88
same,Ccdc153 log2 nFC,[1],0.79
same,Ccdc153 nFC,[1],1.73
same,Ccdc171 log2 nFC,[1],1.04
same,Ccdc171 nFC,[1],2.06
same,Ccl5 log2 nFC,[1],0.76
same,Ccl5 nFC,[1],1.69
same,Cep85l log2 nFC,[1],1.02
same,Cep85l nFC,[1],2.03
